Data as given in PubChem BioAssay (NCI).
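How tested: cells in 96-well plates exposed to compound for 48 hours at five concentrations. TGI: concentration producing complete growth inhibition.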

Assays:
Experiment in all cases: NCI-60 cell line screen, 48 h
OVCAR-5 ovarian = tested on: OVCAR-5 ovarian
SF-268 CNS = tested on: SF-268 CNS
SF-539 CNS = tested on: SF-539 CNS
MALME-3M melanoma = tested on: MALME-3M melanoma
NCI-H226 lung = tested on: NCI-H226 lung
SK-MEL-5 melanoma = tested on: SK-MEL-5 melanoma
K-562 leukemia = tested on: K-562 leukemia
M14 melanoma = tested on: M14 melanoma
HS 578T breast = tested on: HS 578T breast
SK-MEL-2 melanoma = tested on: SK-MEL-2 melanoma
KM12 colon = tested on: KM12 colon
TK-10 renal = tested on: TK-10 renal
OVCAR-8 ovarian = tested on: OVCAR-8 ovarian
PC-3 prostate = tested on: PC-3 prostate
HCC-2998 colon = tested on: HCC-2998 colon
A498 renal = tested on: A498 renal
NCI-H522 lung = tested on: NCI-H522 lung
OVCAR-4 ovarian = tested on: OVCAR-4 ovarian
OVCAR-3 ovarian = tested on: OVCAR-3 ovarian
DMS 114 small cell lung = tested on: DMS 114 small cell lung

| SMILES | TGI (OVCAR-5 ovarian) [µM] | TGI (SF-268 CNS) [µM] | TGI (SF-539 CNS) [µM] | TGI (MALME-3M melanoma) [µM] | TGI (NCI-H226 lung) [µM] | TGI (SK-MEL-5 melanoma) [µM] | TGI (K-562 leukemia) [µM] | TGI (M14 melanoma) [µM] | TGI (HS 578T breast) [µM] | TGI (SK-MEL-2 melanoma) [µM] | TGI (KM12 colon) [µM] | TGI (TK-10 renal) [µM] | TGI (OVCAR-8 ovarian) [µM] | TGI (PC-3 prostate) [µM] | TGI (HCC-2998 colon) [µM] | TGI (A498 renal) [µM] | TGI (NCI-H522 lung) [µM] | TGI (OVCAR-4 ovarian) [µM] | TGI (OVCAR-3 ovarian) [µM] | TGI (DMS 114 small cell lung) [µM] |
| --- | --- | --- | --- | --- | --- | --- | --- | --- | --- | --- | --- | --- | --- | --- | --- | --- | --- | --- | --- | --- |
| NC(N)=Nc1ccc(-c2ccc(N=C(N)N)cc2)cc1 | 81.3 | > 100 | 74.7 | 62.6 | 65.4 | 54.1 | > 100 | > 100 | 67.3 | 99.7 | > 100 | 36.5 | > 100 | 75.9 | > 100 | > 100 | > 100 | > 100 | > 100 |  |
| Cc1ccc(N=N/C(=N/NC(=O)c2cc(Cl)ccc2O)c2ccc(N(CCC#N)CCC#N)cc2C)cc1 | > 100 | > 100 | 46.4 | 47.8 | 63.7 | 36.4 | > 100 | > 100 | 46.4 | 68.4 | > 100 | 87.2 | 54.7 | > 100 | 68.5 | 49.5 | 31.4 | 97.7 | 55.9 |  |
| NC1c2c(Br)sc(N3CCCC3)c2C(=O)C1O (configuration not stated) | > 50 | > 50 | > 50 | > 50 | > 50 | > 50 | > 50 | > 50 | > 50 | > 50 | > 50 | > 50 | > 50 | > 50 | > 50 | > 50 | > 50 | > 50 | > 50 |  |
| CC1=NN(c2nc(N)nc(/C(C#N)=C/c3ccccc3O)n2)C(C)(C)C1 | 30.4 | 37.1 | 30.6 | 33.8 | 37.8 | 28.8 | > 100 | 36.4 | 35.4 | 39.6 | 31.4 | 58.4 | 61.6 | 31.6 | 36.5 | 62.9 | 36 | 34.2 | 27.8 |  |
| Cc1c2n(c(=O)[nH]c1=O)C1OC(CO)C(O2)C1N=[N+]=[N-] (configuration not stated) |  | > 100 | > 100 |  | > 100 | > 100 | > 100 |  |  | > 100 | > 100 | > 100 | > 100 |  |  | > 100 | > 100 | > 100 | > 100 | > 100 |
| Cn1c2ccc([N+](=O)[O-])cc2c(=O)n1Cc1ccccc1F | > 100 | > 100 | 79.6 | > 100 | 92.4 | > 100 | > 100 | > 100 | 82.8 | > 100 | > 100 | > 100 | > 100 | > 100 | > 100 | > 100 | 71.5 | > 100 | > 100 |  |
| CC1(C)CCc2ccc(OCCC(=O)O)cc2O1 | > 100 | > 100 | > 100 | > 100 | > 100 | > 100 | > 100 | > 100 |  | > 100 | > 100 |  | > 100 |  |  |  | > 100 | > 100 | > 100 | > 100 |
| O=c1ccn([C@@H]2C[C@H]2CO)c(=O)[nH]1 | > 100 | > 100 | > 100 | > 100 | > 100 | > 100 | > 100 | > 100 | > 100 | > 100 | > 100 | > 100 | > 100 | > 100 | > 100 | > 100 | > 100 | > 100 |  |  |
| CSC1=C(C#N)C(=S)N=C(N)C1C(=O)Nc1ccc(C)cc1 (configuration not stated) | > 100 | > 100 | > 100 | > 100 | > 100 | > 100 | > 100 | > 100 | > 100 | > 100 | > 100 | > 100 | > 100 | > 100 | > 100 | > 100 | 94.8 | > 100 | > 100 |  |
| C=Cc1nc2c(Cl)ncnc2n1Cc1ccccc1 | 30.5 | 22.9 | 8.77 | 15.1 | 17 | 8.69 | > 40.1 | 15.7 | 50.4 | 26.3 | 11.5 | 7.72 | 12 | 14.5 | 6.76 | 22.4 | 3.83 | 13.5 | 7.95 |  |
| O=[N+]([O-])C(=C(Cl)Cl)C(Cl)=C(Cl)Cl | 3.94 | 4.92 | 3.45 | 0.126 | 3.53 | 1.83 | 0.118 | 0.0871 | 3.29 | 3.24 | 5.51 | 1.35 | 5.14 | 4.66 | 5.43 | 14.9 | < 0.0106 | 0.482 | 2.24 |  |
| COc1cc(NC(C)c2ccc3c(c2)OCCO3)cc(OC)c1OC (configuration not stated) | > 100 | > 100 | 60.4 | 67.8 | 75.6 | 76.3 | > 100 | > 100 | 52.1 | 79.8 | > 100 | > 100 | > 100 | > 100 | > 100 | > 100 | 48.9 | > 100 | > 100 |  |
| O=C(C1OC1c1ccc(Cl)cc1)C12CC3CC(CC(C3)C1)C2 (configuration not stated) | 50.8 | 53 | 32.5 | 69.8 | 38.5 | 28.6 | 51.2 | 38.1 | 73.9 | 43.6 | 41 | > 100 | 32.9 | 79.9 | 35.4 | 46.7 | 42.5 | 40 | 30 |  |
| COc1cccc2c1C(=O)C1=C(C2=O)C(O)CC(C)(C)O1 (configuration not stated) | > 100 | > 100 | > 100 | 33.7 | > 100 | 28.3 | 50.3 | > 100 | > 100 | > 100 | 91.2 | > 100 | 91.5 | 68.4 | > 100 | > 100 | 62.8 | 55.8 | 40.5 |  |
| CCCCCCNC(=O)C(C)C1CCC2(C)C=CC(=O)C(C)=C2C1O (configuration not stated) | > 100 | > 100 | > 100 |  | > 100 | > 100 | > 100 |  |  | > 100 | > 100 |  | > 100 |  | > 100 | > 100 | > 100 | > 100 | > 100 | > 100 |
| COc1ccccc1CCN1CCN(CCCc2ccccc2)CC1 | > 100 | > 100 | > 100 | > 100 | > 100 | 45.7 | > 100 | 76.4 | > 100 | > 100 | > 100 | > 100 | > 100 | > 100 | > 100 | > 100 | > 100 | > 100 | > 100 |  |
| CC1OC(OC2C(O[C@H]3CC[C@@H]4C(=CC[C@@H]5[C@@]4(C)C(=O)C[C@]4(C)[C@@H]([C@H](C)CC[C@@H](O)C(C)(C)O)CC[C@@]54C)C3(C)C)OC(CO)C(O)C2O)C(O)C(O)C1O (some centres not stated) | > 100 | > 100 | > 100 | > 100 | > 100 | > 100 | > 100 | > 100 | > 100 | > 100 | > 100 | > 100 | > 100 | > 100 | > 100 | > 100 | > 100 | > 100 | > 100 |  |
| COc1ccc(N2CN3OC(=O)N(c4ccc(OC)cc4)[C@@]3(c3ccccc3)C2)cc1 | > 100 | > 100 | > 100 | > 100 | > 100 | 76.9 | > 100 | > 100 | > 100 | 45.1 | > 100 | > 100 | > 100 | 67.3 | > 100 | > 100 | > 100 | > 100 | 48.9 |  |
| CC(=O)Oc1c(C)c2c(c3ncccc13)OC(C)C2 (configuration not stated) | 31 | 28.8 | 28.7 | 30.2 | 32.8 | 27.5 | 35.5 | 28.5 | 59.4 | 40.1 | 28.7 | 49.2 | 27.5 | 92.1 | 28.7 | 58.3 | 15.4 | 29.9 | > 100 |  |
| S=C1NCCN1 | > 100 | > 100 | > 100 | > 100 | > 100 | > 100 | > 100 | > 100 |  | > 100 | > 100 | > 100 | > 100 |  |  |  | > 100 | > 100 | > 100 | > 100 |
| CS(=O)(=O)OCCCCOS(=O)(=O)CF | > 100 | > 100 | > 100 | > 46.4 | > 100 | > 100 | > 100 | > 100 | > 100 | > 100 | > 100 | > 100 | > 100 | > 100 | > 100 | > 100 | > 100 | > 100 | > 100 |  |
| O=C1N(C2CCCCC2)C(=O)N1C1CCCCC1 | 30.2 | 40.2 | 45.1 | 11.7 | 11.3 | 4.88 | 13.4 | 20.7 | 2.93 | 85.5 | 15.7 | 38.5 | 16.6 | > 45.7 | > 47.3 | 2.37 | 3.66 | 31.7 | > 100 |  |
| C1=CC2C=CC(C=C1)P2c1ccccc1 (configuration not stated) | > 100 | > 100 | > 100 | > 100 | > 100 | > 100 | > 100 | > 100 | > 100 | > 100 | > 100 | > 100 | > 100 | > 100 | > 100 | > 100 | > 100 | > 100 | > 100 |  |
| CC(=O)Nc1oc(C)c(C)c1S(=O)(=O)c1ccc(Cl)cc1 | > 100 | > 100 | > 100 | > 100 | > 100 | 76.6 | > 100 | > 100 | 93.6 | 85.6 | > 100 | > 100 | > 100 | 83.4 | > 100 | > 100 | > 100 | > 100 | > 100 |  |
| Cc1sc(Nc2ccc(Nc3nc(-c4ccccc4)c(C)s3)cc2)nc1-c1ccccc1 | > 100 | > 100 | 70.6 | > 100 | > 100 | 66.3 | > 100 | > 100 | > 100 | 76.4 | > 100 | > 100 | > 100 | 48.4 | 50.5 | > 100 | > 100 | > 100 | > 100 |  |
| CN(Cc1cnc2nc(N)nc(N)c2n1)c1ccc(C(=O)NCCS(=O)(=O)O)cc1 | > 100 | > 100 | > 100 | > 100 | > 100 | > 100 | > 100 | > 100 | > 100 | > 100 | > 100 | > 100 | > 100 | > 100 | > 100 | > 100 | > 100 | > 100 | > 100 |  |
